IC50 data for one compound are collected here from BindingDB's records for doi:10.1016/j.bmcl.2008.06.042 (Ariad Pharmaceuticals, 2008).

Some results are limits rather than exact numbers.

Broadly, the IC50 is the concentration needed to halve the response being measured. Low values mean inhibition by little substance, high ones a need for much substance.

This assay addresses FLT3 receptor tyrosine kinase (Homo sapiens) (UniProt P36888). Kind of assay: Inhibition of Flt3.

Chain of FLT3 receptor tyrosine kinase (Homo sapiens) (P36888 whole entry, looked up): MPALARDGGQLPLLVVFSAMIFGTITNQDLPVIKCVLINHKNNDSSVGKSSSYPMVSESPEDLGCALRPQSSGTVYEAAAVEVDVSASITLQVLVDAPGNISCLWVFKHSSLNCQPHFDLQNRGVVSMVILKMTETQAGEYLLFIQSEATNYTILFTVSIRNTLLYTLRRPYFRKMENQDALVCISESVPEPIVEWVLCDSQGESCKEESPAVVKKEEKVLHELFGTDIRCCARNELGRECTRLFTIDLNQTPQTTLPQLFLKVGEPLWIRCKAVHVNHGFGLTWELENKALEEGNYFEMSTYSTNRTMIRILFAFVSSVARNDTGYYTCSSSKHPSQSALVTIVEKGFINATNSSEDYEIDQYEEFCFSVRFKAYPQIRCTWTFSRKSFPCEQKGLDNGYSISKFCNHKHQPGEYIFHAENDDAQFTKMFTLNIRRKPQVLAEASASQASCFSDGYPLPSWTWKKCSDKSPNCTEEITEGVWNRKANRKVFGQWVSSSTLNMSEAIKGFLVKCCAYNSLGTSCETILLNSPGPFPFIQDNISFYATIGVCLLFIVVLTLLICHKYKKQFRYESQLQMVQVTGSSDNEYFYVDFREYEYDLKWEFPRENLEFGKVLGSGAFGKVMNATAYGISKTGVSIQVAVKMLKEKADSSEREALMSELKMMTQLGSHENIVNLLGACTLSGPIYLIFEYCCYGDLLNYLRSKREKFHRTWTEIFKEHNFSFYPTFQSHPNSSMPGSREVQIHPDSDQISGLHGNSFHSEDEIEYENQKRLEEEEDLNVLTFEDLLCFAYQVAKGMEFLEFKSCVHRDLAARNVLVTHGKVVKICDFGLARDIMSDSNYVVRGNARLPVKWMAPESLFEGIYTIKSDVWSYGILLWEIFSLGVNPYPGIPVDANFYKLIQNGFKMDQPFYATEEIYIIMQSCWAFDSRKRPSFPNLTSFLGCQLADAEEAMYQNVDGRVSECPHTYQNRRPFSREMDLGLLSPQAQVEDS

On to `Cc1cccc(C)c1/C=C/n1cnc2c(Nc3ccc(P(C)(C)=O)cc3)ncnc21` [AP24149], for which the IC50 is > 1000 nM.
